Measurements as given in patent publication US7514432B2, “Compounds and methods of treating cell proliferative diseases, retinopathies and arthritis” (Exonhit Therapeutics SA, priority 2003, dated 2009).

What was measured:
REF cells [1] = test: Lamellipodia/ruffles formation after wounding; assay type: cell-based
Procedure: This assay has been described by Nobes & Hall (J. Cell Biol., 1999). • Preparation of REF cells: REF cells are prepared from 15-18 E14 embryos. Briefly, the head, tail and viscerae are removed from the embryo. Only the torso is kept, sliced into small squares, washed, treated with trypsin-EDTA for 20 min. at 37° C., resuspended in medium, counted and plated. After 24 h, the cells are trypsinized and frozen in cryovials. 48 h before the wound healing assay, the cells are plated on coverslips. The day of the experiment, the cells are treated with the test compounds or DMSO alone. After 30 min., a scrape is done in the center of the coverslip using a small pipette tip. The cells are washed and fresh medium containing the compound or the DMSO is added. • Time-Lapse microscopy: The dishes containing the scraped coverslips and the treatment medium, sealed with parafilm is put under a thermostated microscope (37° C.) coupled to a video camera and a computer. Microscope images were collected every 5 minutes and recorded using the OpenLab software. When the assay is terminated (after 4 to 24 hours), pictures and movies are analyzed using the Metamorphe software. The pictures were calibrated (pixel converted to μm), and the velocity and total distance covered were calculated after tracking 7 to 10 single cells on the movies. […] The position of each point was recorded. […]

REF cells [2] = test: Wound healing assay (time-lapse microscopy); assay type: cell-based; details: time lapse 8 hours
Procedure: FIG. 4: Migration assays. (A) Wound healing assay in REF cells. 7.6 10^4 cells were plated on coverslips 48 hours before the experiment. The cells were pre-treated for 30 min. with the compounds, and then a scrape was done using a pipette tip. The scraped coverslips in treatment medium were put under a thermostated microscope coupled to a video camera. Movies were analyzed as described in material and methods, and velocity and total distance covered by the cells were evaluated. Bar graphs represent the mean±SEM of 2 to 4 experiments. (B) Boyden chamber migration assay in HMEC1, NIH3T3 and MDA-MB-231 cells. […] After labeling, cells were washed with HBSS and fluorescence was read in a fluorescence plate reader. Fluorescence values were normalized against the fluorescence obtained for the 1% DMSO control. […]
This assay has been described by Nobes & Hall (J. Cell Biol., 1999). • Preparation of REF cells: REF cells are prepared from 15-18 E14 embryos. […] Only the torso is kept, sliced into small squares, washed, treated with trypsin-EDTA for 20 min. at 37° C., resuspended in medium, counted and plated. […] Microscope images were collected every 5 minutes and recorded using the OpenLab software. When the assay is terminated (after 4 to 24 hours), pictures and movies are analyzed using the Metamorphe software. […] The position of each point was recorded. […]

[3] = test system: intersegmental vessels of zebrafish embryos; test: In vivo zebrafish angiogenesis assay; details: embryos 20 hpf, incubated 28 hours; for max inhibition of intersegmental vessels formation: 1% DMSO
Procedure: FIG. 6: In vivo zebrafish angiogenesis assay. 20 Hours post fertilization (hpf) embryos Were incubated with compounds and 1% DMSO for 28 hours. Vessels were stained with NBT/BCIP and morphometric analyses were done using the Adobe Photoshop software. For each condition, 10 embryos were analyzed and results were expressed as means±SEM. (A) dose response curves. (B) table presenting the 50% and max inhibition of intersegmental vessels formation together with the percentage of dead embryos (see material and methods).
In vivo zebrafish angiogenesis model: This assay is a viable and validated whole animal model for screening small molecules that affect blood vessel formation (Serbedzija et al, Angiogenesis, 1999). The study was subcontracted to Phylonix Pharmaceutical, Cambridge, Mass., USA. • Drug treatment: Intersegmental vessels (ISVs) in zebrafish are well accepted as angiogenic vessels, and they are easily observed using microscopy. By 20 hpf stage, the major vasculogenic vessels (dorsal aorta and caudal vein) have developed. By 48 hours post fertilization (hpf), ISVs have formed by sprouting from the dorsal aorta and caudal vein. Therefore, 20 hpf was used as the starting point and 48 hpf as the end point for drug treatment. Zebrafish embryos staged at 20 hpf were incubated with compound solution at 28° C. for 28 hours in 6-well plates, 20 embryos per well. Embryos treated with 1% DMSO and 5 μM Flavopiridol were used as negative and positive controls, respectively. • Microscopy: All light microscopy studies were performed using a ZEISS Stemi 2000-C stereomicroscope (Zeiss), equipped with a digital spot camera (Diagnostic Instruments Inc.). Images were further processed and analyzed using Adobe Photoshop 7.0 (Adobe). • Whole mount EAP staining: Embryos were fixed in 4% PFA for 2 hours at room temperature, and dehydrated in 100% ethanol following standard procedures. Embryos were then rehydrated, blocked, and stained with NBT/BCIP. After washing, embryos were examined by microscopy. • Quantitation of anti-angiogenic effects: To quantitate anti-angiogenic effects, 5 well developed trunk ISVs located around the anal pore were selected and morphometric analysis [area (pixel)× signal intensity] was performed using Adobe Photoshop. For each condition, 10 embryos were assessed and the mean value of 10 images was calculated using EXCEL software program (Microsoft Corporation). To calculate the inhibitory effect, the mean value of signal (S) in 5 ISVs in drug treated embryos was divided by mean value of S in DMSO control embryos, and calculated as % inhibition using the following formula: […]

SMILES	lamellipodia/ruffles formation after wounding (REF cells [1])	decrease of migration of REF cells (velocity and total distance covered) (REF cells [2]; 30 μM)	anti-angiogenic activity in the zebrafish embryo [3]	toxicity in zebrafish embryos [3]	max inhibition of intersegmental vessels formation [3] [%]	decrease of migration of REF cells (velocity and total distance covered) (REF cells [2]; 10 μM) [%]
Cl.Cl.O=c1cc(CN2CCOCC2)occ1OCCCCCSc1ccnc2cc(C(F)(F)F)ccc12 [EHT 1864, 5-(5-(7-(Trifluoromethyl)quinolin-4-ylthio)pentyloxy)-2-(morpholinomethyl)-4H-pyran-4-one dihydrochloride]	dose-dependent inhibition of lamellipodia/ruffles formation	about 48%	dose-dependent anti-angiogenic activity	much less toxic than reference compounds Flavopiridol and SU-5416	77	–
CN1CCN(Cc2cc(=O)c(OCCCCCSc3ccnc4cc(C(F)(F)F)ccc34)co2)CC1.Cl.Cl.Cl [EHT 9241, 5-(5-(7-(Trifluoromethyl)quinolin-4-ylthio)pentyloxy)-2-((4-methylpiperazin-1-yl)methyl)-4H-pyran-4-one trihydrochloride]	dose-dependent inhibition of lamellipodia/ruffles formation	–	–	–	40	36
